# The source made the active and inactive calls.
# What was measured:
# [1] = molecular target: T1, Interleukin-8 (Homo sapiens, UniProt P10145); assay: Dose Response confirmation of uHTS small molecule hits for cystic fibrosis induced NFkb Inhibitors in a PAF-induced IL8 counterscreen.; type: functional; conditions: read-out: IC50_Mean
# T1 sequence (P10145 whole entry): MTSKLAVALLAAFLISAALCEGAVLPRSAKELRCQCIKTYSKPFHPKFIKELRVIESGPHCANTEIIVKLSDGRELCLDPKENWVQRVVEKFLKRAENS
# [2] = molecular target: T1, Interleukin-8; assay: Dose Response confirmation of uHTS small molecule hits for cystic fibrosis induced NFkb Inhibitors in a TNFa-induced IL8 counterscreen.; type: functional; conditions: read-out: IC50_Mean
# [3] = molecular target: Beta Lactamase (Pseudomonas aeruginosa, UniProt Q932Y6); assay: beta-lactamase reporter inhibitor potency, dose response, artefact control for TLR9-MyD88 binding inhibitor project, BLA reporter cells, FRET fluorescence (AID 588341); type: cell-based;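 note: cell based assay in CHO-K1 cells stably expressing beta-lactamase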
# Beta Lactamase, sequence (Q932Y6 whole entry): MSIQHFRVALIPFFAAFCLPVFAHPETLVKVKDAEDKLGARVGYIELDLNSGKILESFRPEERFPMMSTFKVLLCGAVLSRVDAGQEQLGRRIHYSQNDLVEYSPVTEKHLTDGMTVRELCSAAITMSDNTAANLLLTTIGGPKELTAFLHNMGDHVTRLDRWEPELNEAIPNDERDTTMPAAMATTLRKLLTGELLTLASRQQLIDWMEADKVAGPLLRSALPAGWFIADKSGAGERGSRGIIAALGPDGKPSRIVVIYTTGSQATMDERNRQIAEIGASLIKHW
# [4] = test system: INS1; assay: beta cell apoptosis inhibitors, cytokine rescue, dose response, luminescence, retest (AID 449756); type: functional, cell-based; conditions: Rattus norvegicus;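 note: cell death triggered by IL-1 beta plus TNF-alpha plus IFN-gamma mixture; protective hits raise ATP signal compared with cytokine alone wells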
# [5] = test system: CHO; assay: cytotoxicity in TLR9-MyD88 CHO cells, dose response, cytotoxicity control for TLR9-MyD88 binding inhibitor project, cell-based, luminescence (AID 588339); type: functional, hamster; conditions: Cricetulus griseus;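 note: CHO cells stably coexpressing TLR9 and MyD88 fusions from primary screen; compound exposure lasted 48 hours before viability readout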
# [6] = Shn3 3'UTR reporter inhibitors, dose response, cell-based, Clone20 osteoblasts, firefly luciferase, cherry-picked (AID 624132); type: functional;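 note: firefly luciferase luminescence from reporter carrying the Shn3 3'UTR in osteoblasts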
# [7] = control 3'UTR Renilla luciferase suppression, dose response, counter-screen for Shn3 inhibitor project, cell-based, Clone20-Shn3RL, cherry-picked (AID 624133); type: functional
# [8] = test system: Streptococcus; assay: Group A Streptococcus viability loss, dose response, counter-screen for streptokinase expression inhibitor project, luminescence, BacTiterGlo (AID 1915); type: functional, organism-based;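 note: potency for reduction of bacterial viability or growth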
# [9] = molecular target: T2, Streptokinase A (Streptococcus pyogenes serotype M1, UniProt P10520); assay: S. pyogenes streptokinase expression inhibitors, potency, dose response, plasminogen activation absorbance, OD405 (AID 1914); type: functional, Streptococcus pyogenes M1 GAS;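 note: secreted streptokinase activity via plasminogen activation per viability signal from cell pellet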
# T2 sequence (P10520 whole entry): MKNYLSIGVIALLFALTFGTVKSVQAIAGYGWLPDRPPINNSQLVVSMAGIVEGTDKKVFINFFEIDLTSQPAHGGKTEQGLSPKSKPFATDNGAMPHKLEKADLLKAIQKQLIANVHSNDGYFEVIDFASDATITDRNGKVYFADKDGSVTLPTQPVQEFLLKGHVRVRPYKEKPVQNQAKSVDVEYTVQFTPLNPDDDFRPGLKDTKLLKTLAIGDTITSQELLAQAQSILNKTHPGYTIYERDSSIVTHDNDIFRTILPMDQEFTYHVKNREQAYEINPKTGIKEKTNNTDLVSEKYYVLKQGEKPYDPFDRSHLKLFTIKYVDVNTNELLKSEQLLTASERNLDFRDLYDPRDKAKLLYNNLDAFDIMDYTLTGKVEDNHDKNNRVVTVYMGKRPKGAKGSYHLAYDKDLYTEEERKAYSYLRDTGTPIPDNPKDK
# [10] = molecular target: Heat shock protein HSP 90-alpha (Homo sapiens, UniProt P07900); type: functional, organism-based
# [11] = molecular target: ATP-binding cassette sub-family B member 6 (Homo sapiens, UniProt Q9NP58); assay: ABCB6 transporter inhibitors, dose response, K562-ABCB6 cells, flow cytometry, cherry pick 1 (AID 623955); type: functional; conditions: read-out: EC50_MICROM
# ATP-binding cassette sub-family B member 6, sequence (Q9NP58 whole entry): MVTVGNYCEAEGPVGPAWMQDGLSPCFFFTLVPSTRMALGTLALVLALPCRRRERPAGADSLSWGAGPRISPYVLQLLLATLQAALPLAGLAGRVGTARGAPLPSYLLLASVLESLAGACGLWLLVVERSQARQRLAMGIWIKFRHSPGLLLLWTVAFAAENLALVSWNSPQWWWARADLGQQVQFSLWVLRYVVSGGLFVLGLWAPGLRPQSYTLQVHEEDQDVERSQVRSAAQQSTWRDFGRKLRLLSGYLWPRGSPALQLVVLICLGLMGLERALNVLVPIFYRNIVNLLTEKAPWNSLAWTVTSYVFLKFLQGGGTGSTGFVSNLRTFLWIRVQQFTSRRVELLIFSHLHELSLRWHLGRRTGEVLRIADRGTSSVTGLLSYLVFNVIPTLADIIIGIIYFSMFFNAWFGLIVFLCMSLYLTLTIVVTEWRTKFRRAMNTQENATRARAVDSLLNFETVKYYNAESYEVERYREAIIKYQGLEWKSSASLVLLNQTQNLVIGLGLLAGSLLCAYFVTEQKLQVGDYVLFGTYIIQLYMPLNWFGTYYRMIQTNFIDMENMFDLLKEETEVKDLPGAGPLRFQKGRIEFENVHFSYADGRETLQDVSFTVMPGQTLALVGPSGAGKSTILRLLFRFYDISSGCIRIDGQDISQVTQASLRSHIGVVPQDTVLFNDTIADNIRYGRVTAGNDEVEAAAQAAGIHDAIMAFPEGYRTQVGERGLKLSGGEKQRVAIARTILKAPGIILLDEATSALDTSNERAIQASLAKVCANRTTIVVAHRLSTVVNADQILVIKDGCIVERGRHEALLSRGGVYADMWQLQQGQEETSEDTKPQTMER
# [12] = molecular target: T3, Replicative DNA helicase DnaB (Mycobacterium tuberculosis, UniProt P9WMR3); assay: DnaB intein splicing inhibitors, dose response, biochemical, cell-free fluorescence (AID 449749); type: functional
# T3 sequence (P9WMR3 whole entry): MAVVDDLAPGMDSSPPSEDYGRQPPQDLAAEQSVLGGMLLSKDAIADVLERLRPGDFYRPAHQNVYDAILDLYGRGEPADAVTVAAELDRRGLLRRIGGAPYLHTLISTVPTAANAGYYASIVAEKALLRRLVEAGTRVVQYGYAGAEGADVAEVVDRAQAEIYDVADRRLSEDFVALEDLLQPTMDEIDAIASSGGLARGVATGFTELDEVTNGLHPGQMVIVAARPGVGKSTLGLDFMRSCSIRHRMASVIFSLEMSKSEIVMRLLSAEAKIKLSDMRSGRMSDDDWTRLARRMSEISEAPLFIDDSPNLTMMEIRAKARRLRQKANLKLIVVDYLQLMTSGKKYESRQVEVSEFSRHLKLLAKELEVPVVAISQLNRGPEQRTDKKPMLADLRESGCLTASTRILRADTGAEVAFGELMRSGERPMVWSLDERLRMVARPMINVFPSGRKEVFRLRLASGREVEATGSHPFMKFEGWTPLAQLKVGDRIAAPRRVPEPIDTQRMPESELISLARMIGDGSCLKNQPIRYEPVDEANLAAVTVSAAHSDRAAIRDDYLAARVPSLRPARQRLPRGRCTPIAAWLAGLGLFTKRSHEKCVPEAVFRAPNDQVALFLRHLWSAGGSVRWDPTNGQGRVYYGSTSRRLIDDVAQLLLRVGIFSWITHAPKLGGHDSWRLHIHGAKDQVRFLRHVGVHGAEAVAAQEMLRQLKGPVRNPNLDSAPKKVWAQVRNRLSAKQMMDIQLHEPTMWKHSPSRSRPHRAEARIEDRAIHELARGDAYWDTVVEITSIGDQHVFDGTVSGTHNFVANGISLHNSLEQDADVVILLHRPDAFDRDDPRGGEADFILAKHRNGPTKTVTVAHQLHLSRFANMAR
# [13] = molecular target: T4, Protein RecA (Mycobacterium tuberculosis, UniProt P9WHJ3); assay: Fluorescence Cell-Free Homogeneous Dose Retest to Identify Inhibitors of RecA-Intein Splicing Activity. [Related pubchem assays (depositor defined):AID2097, AID2223, AID489010, AID492950]; type: functional
# T4 sequence (P9WHJ3 whole entry): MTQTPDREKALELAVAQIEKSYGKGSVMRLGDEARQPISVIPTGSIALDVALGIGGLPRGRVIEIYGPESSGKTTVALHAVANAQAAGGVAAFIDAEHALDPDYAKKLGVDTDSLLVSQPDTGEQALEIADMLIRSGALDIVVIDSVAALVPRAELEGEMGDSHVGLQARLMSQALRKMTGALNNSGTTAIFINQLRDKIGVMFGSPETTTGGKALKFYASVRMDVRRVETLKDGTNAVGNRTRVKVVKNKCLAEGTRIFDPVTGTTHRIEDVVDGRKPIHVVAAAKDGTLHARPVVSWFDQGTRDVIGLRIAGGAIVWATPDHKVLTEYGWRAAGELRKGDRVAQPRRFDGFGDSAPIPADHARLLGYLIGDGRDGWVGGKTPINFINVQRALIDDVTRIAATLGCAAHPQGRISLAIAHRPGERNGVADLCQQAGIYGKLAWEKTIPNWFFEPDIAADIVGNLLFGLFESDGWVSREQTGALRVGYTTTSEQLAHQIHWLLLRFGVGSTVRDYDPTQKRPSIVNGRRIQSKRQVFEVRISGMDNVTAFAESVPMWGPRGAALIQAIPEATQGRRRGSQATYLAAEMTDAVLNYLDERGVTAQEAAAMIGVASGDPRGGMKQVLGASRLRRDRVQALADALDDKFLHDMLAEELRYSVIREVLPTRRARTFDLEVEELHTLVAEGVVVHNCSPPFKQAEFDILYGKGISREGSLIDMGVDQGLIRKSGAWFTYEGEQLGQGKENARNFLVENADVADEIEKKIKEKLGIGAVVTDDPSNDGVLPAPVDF
# [14] = HepG2 cell cytotoxicity, dose response, cytotoxicity control for Shn3 inhibitor project, CellTiter-Glo, cherry-picked (AID 624134); type: functional, cell-based
# [15] = test system: Streptococcus sp. 'group A'; assay: growth inhibition of control SK(-) GAS strain, dose response, counter-screen for streptokinase expression inhibitor project, luminescence, kanamycin, BacTiterGlo, confirmation (AID 1900); type: functional, organism-based
# [16] = molecular target: T5, Polyadenylate-binding protein 1 (Homo sapiens, UniProt P11940); assay: PABP1 MLLE–PAM2 interaction inhibitors, dose response, miRNA deadenylation inhibitor project, biochemical, fluorescence polarization, Cy5-PAM2 peptide, secondary (AID 602260); type: functional; conditions: read-out: IC50_Mean
# T5 sequence (P11940 whole entry): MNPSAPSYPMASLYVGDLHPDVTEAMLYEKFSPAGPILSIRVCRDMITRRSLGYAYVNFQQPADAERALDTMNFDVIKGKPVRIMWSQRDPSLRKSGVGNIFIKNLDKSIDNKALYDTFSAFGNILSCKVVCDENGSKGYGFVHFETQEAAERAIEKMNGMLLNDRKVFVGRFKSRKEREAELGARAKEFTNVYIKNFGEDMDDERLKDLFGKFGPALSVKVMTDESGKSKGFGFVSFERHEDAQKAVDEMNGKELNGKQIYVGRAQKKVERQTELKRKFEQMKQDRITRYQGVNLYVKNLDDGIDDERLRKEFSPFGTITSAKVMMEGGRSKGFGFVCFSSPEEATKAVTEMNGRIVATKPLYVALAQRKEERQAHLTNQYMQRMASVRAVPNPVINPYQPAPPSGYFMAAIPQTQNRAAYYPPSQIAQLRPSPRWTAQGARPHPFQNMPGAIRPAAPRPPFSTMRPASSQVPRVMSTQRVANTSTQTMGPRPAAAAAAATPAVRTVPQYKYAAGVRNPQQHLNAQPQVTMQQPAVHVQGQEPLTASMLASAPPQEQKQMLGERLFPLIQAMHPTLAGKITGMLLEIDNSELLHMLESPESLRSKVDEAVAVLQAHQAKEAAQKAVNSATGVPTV
# [17] = molecular target: DNA (cytosine-5)-methyltransferase 1 (Homo sapiens, UniProt P26358); assay: DNMT1 methyltransferase inhibitors, confirmation, biochemical, fluorescent molecular beacon (AID 602386); type: functional
# DNA (cytosine-5)-methyltransferase 1, sequence (P26358 whole entry): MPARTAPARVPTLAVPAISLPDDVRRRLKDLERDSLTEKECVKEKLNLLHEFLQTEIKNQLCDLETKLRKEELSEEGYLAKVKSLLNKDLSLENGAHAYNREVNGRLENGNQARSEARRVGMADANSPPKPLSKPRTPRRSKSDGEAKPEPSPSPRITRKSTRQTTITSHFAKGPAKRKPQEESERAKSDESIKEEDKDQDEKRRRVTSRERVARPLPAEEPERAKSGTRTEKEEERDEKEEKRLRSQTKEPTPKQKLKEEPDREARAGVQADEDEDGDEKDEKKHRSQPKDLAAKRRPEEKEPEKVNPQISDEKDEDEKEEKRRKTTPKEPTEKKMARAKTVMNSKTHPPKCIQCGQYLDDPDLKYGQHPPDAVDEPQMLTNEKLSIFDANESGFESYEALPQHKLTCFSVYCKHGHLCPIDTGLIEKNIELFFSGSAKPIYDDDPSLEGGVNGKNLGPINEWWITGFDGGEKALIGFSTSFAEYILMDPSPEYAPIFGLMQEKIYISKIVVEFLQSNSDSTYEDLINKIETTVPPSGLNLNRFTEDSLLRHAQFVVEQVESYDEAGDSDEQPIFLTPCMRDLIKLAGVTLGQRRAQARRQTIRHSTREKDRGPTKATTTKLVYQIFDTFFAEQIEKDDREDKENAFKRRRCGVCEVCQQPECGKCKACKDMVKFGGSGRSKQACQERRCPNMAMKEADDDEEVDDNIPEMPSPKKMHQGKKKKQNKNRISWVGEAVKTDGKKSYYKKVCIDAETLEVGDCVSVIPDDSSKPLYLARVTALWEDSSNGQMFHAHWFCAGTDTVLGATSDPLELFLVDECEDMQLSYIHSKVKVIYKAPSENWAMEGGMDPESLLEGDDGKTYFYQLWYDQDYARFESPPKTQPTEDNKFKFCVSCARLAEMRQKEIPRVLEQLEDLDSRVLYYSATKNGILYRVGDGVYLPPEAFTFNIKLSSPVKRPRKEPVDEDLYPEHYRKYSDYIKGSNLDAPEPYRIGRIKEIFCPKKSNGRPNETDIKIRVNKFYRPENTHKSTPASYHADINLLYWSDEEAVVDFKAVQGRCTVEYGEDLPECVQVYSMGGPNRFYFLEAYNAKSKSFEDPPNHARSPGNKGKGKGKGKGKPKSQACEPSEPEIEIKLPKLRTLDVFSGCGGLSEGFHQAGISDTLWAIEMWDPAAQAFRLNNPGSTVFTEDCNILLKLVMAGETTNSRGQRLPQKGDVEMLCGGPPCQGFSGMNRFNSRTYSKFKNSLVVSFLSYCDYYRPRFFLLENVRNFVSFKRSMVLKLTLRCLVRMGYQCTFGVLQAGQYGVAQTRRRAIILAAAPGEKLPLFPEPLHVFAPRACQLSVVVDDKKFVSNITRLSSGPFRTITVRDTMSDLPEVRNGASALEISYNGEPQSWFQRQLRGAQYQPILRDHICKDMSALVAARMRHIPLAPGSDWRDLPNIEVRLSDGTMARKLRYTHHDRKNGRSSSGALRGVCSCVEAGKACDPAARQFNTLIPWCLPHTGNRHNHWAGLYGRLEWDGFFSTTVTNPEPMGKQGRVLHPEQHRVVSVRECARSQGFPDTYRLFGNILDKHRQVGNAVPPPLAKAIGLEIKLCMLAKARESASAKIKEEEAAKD
# [18] = molecular target: T5, Polyadenylate-binding protein 1; assay: PABP1 MLLE–PAM2 binding inhibitor potency, dose response, biochemical, fluorescence polarization, FITC-PAM2 peptide (AID 602259); type: functional; conditions: read-out: IC50_Mean
# [19] = molecular target: T6, Apoptotic protease-activating factor 1 (Homo sapiens, UniProt O14727); assay: SAR analysis of small molecule Activators of Apaf-1 in a Fluorescent assay.; type: functional; conditions: read-out: EC50_Mean;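 note: caspase-3 cleavage of fluorogenic Rh110 DEVD substrate downstream of apoptosome activation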
# T6 sequence (O14727 whole entry): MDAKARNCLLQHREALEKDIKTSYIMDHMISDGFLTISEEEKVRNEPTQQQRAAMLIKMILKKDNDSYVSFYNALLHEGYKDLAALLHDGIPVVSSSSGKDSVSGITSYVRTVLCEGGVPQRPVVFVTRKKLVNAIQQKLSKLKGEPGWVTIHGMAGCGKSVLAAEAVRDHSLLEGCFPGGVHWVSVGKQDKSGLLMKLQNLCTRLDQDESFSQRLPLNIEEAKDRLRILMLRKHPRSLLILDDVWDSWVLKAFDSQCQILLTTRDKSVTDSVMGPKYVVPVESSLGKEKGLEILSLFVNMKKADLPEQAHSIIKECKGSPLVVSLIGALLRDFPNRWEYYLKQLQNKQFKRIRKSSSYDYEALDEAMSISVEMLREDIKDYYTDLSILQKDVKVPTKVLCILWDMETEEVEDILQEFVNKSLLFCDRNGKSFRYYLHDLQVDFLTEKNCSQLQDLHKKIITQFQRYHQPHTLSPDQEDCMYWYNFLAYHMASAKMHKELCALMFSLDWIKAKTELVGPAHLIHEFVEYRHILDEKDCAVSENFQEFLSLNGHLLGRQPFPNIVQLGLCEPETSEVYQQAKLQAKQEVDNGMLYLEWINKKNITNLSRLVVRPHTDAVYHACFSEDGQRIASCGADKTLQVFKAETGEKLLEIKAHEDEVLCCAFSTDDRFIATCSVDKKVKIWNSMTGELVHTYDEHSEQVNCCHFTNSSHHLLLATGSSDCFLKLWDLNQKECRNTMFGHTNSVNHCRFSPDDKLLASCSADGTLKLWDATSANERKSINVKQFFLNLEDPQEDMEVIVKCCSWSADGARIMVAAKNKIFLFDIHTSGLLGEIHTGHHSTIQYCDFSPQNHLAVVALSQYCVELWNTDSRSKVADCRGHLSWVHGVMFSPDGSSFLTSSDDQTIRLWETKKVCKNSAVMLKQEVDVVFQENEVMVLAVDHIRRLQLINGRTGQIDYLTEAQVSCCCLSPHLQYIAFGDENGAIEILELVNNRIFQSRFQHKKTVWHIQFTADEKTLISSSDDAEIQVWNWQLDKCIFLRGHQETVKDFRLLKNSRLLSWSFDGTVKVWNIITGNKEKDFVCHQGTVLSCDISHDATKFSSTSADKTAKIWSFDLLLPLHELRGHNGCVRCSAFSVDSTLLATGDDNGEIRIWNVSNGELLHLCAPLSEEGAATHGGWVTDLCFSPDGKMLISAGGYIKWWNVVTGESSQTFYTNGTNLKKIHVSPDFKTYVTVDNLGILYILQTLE
# [20] = ARNT/TACC3 interaction disruptors, potency, confirmation, biochemical, AlphaScreen, cherry-picked samples (AID 651703); type: functional, Homo sapiens;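 note: His-tagged ARNT PAS-B domain paired with GST-TACC3 E629A dimer coactivator fragment; potency of inhibitors that break up the complex and lower AlphaScreen signal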
# [21] = molecular target: Adenosylmethionine-8-amino-7-oxononanoate aminotransferase (Mycobacterium tuberculosis, UniProt P9WQ81); assay: Mycobacterium tuberculosis BioA enzyme inhibitor Measured in Biochemical System Using Plate Reader - 2163-02_Inhibitor_Dose_CherryPick_Activity.; type: functional, Mycobacterium tuberculosis UT205
# Adenosylmethionine-8-amino-7-oxononanoate aminotransferase, sequence (P9WQ81 whole entry): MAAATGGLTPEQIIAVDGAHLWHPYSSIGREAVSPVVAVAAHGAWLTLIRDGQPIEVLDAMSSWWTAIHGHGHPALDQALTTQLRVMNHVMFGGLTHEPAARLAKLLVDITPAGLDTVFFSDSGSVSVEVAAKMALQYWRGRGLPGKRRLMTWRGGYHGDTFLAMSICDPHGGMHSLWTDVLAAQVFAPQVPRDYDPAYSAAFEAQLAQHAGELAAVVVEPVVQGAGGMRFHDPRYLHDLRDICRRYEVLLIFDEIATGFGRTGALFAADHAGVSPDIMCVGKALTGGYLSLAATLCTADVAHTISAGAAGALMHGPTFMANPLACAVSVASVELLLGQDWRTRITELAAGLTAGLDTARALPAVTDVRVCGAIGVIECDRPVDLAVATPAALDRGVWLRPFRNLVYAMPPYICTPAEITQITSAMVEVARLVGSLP
# [22] = molecular target: T7, Diacylglycerol lipase-beta (Mus musculus, UniProt Q91WC9); assay: Late stage assay provider results from the probe development effort to identify inhibitors of diacylglycerol lipase, beta (DAGLb): LCMS-based biochemical dose response assay.; type: functional
# T7 sequence (Q91WC9 whole entry): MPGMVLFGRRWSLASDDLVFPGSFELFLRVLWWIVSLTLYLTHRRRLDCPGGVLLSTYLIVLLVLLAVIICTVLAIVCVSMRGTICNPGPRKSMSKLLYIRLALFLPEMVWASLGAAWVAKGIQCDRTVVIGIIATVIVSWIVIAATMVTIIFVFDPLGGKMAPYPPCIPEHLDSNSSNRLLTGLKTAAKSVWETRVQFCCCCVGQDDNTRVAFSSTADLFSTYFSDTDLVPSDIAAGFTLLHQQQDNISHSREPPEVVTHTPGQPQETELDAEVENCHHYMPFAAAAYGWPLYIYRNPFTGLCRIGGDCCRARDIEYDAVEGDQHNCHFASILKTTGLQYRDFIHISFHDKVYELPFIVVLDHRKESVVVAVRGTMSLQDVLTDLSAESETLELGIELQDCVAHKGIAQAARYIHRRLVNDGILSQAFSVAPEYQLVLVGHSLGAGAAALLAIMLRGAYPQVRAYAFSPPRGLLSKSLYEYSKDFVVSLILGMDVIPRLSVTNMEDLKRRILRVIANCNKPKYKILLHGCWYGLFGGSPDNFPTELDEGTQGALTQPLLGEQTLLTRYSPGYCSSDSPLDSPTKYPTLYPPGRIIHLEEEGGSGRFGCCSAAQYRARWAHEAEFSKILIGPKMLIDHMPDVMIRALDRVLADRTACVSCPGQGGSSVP
# [23] = molecular target: T7, Diacylglycerol lipase-beta; assay: Late stage assay provider results from the probe development effort to identify inhibitors of diacylglycerol lipase, beta (DAGLb): fluorescence-based dose-response biochemical gel-based competitive Activity-Based Protein Profiling (ABPP) inhibition of DAGLb in vitro.; type: functional
smiles,measurement,setting,value
CC1=C(C(=O)OCc2ccc3c(c2)OCO3)C(c2ccc(O)c([N+](=O)[O-])c2)NC(=O)N1 (stereo not drawn),IC50,[1],63.7 µM (inactive)
same,IC50,[2],39.8 µM (inactive)
COC(=O)c1ccc(NC(=O)c2nc(S(=O)(=O)Cc3cccc(C)c3)ncc2Cl)cc1,IC50,[3],10.7 µM (inactive)
same,AC50,[4],7.28 µM (active)
same,IC50,[5],2.53 µM (active)
same,AC50,[6],1.35 µM (active)
same,AC50,[7],5.82 µM (active)
same,EC50,[8],3.07 µM (active)
same,EC50,[9],> 150 µM (not active)
same,AC50,[10],1.26 µM (active)
same,EC50,[11],44.2 µM (active)
same,AC50,[12],0.389 µM (active)
same,EC50,[13],0.228 µM (active)
same,AC50,[14],33.5 µM (active)
same,EC50,[15],0.941 µM (active)
O=C1c2sccc2-c2cccc3cccc1c23,IC50,[16],> 66 µM (inactive)
same,IC50,[17],1.02 µM (active)
same,IC50,[18],25.5 µM (inactive)
O=C(O)CC(CCc1ccccc1)NC(=O)c1cccs1 (stereo not drawn),EC50,[19],> 100 µM (inactive)
COC(=O)C(CC#Cc1ccc2c(c1)[C@]1(C(=O)N2)[C@H](c2ccc(OCCO)cc2)N2[C@H](c3ccccc3)[C@H](c3ccccc3)OC(=O)[C@H]2[C@@H]1C(=O)N1CCCCCCC1)C(=O)OC,AC50,[20],126 µM (active)
O=C(N[C@H]1CC[C@@H](CCn2cc(-c3cccnc3)nn2)O[C@H]1CO)c1ccccc1F,AC50,[21],12.3 µM (active)
O=C(N1CCCCC1Cc1ccccc1)n1cc(-c2ccc(-c3ccccc3)cc2)nn1 (stereo not drawn),IC50,[22],0.1 µM (active)
same,IC50,[23],0.043 µM (active)

# Reference: ChEMBL document CHEMBL1201862, “PubChem BioAssay data set” (2004)
